Source: ChEMBL document CHEMBL1155762, “A new naphthopyrone derivative from Cassia quinquangulata and structural revision of quinquangulin and its glycosides” (2001)
Values after ≈ are worked out from the molar mass of the structure shown.

Assays:
Staphylococcus aureus [1] = experiment: Antibacterial activity against Staphylococcus aureus ATCC 6538 after 24 hrs; format: functional; details: ATCC 6538, 24 h
Staphylococcus aureus [2] = experiment: Antibacterial activity against methicillin-resistant Staphylococcus aureus ATCC 33591 after 24 hrs; format: functional; details: ATCC 33591, 24 h

| Compound | MIC (Staphylococcus aureus [1]) | MIC (Staphylococcus aureus [2]) |
| --- | --- | --- |
| CC[C@H]1OC(=O)[C@H](C)[C@@H](O[C@H]2C[C@@](C)(OC)[C@@H](O)[C@H](C)O2)[C@H](C)[C@@H](O[C@@H]2O[C@H](C)C[C@H](N(C)C)[C@H]2O)[C@](C)(O)C[C@@H](C)C(=O)[C@H](C)[C@@H](O)[C@]1(C)O [ERYTHROMYCIN] | 1.25 µg/mL (≈ 1.7 µM) |  |
| COc1cc(O)c2c(O)c3c(=O)cc(C)oc3cc2c1C [QUINQUANGULIN] | 3.12 µg/mL (≈ 10.9 µM) | 6.25 µg/mL (≈ 21.8 µM) |
| CO[C@H]1/C=C/O[C@@]2(C)Oc3c(C)c(O)c4c(O)c(c(/C=N/N5CCN(C)CC5)c(O)c4c3C2=O)NC(=O)/C(C)=C\C=C\[C@H](C)[C@H](O)[C@@H](C)[C@@H](O)[C@@H](C)[C@H](OC(C)=O)[C@@H]1C [RIFAMPIN] | 0.005 µg/mL (≈ 0.00608 µM) | < 0.005 µg/mL |
